Test results: ChEMBL document CHEMBL1142978, “Probing the anticancer activity of nucleoside analogues: a QSAR model approach using an internally consistent training set” (J Med Chem, 2007)

Experiment: Cytotoxicity against mouse L1210/0 cells after 48 hrs
Format: cell-based
Conditions: Mus musculus, L1210/0, 48 h

| Structure (SMILES) | IC50 [µM] |
| --- | --- |
| CC1(C)[C@@H](CO)CC[C@@]1(C)Cn1nnc2c(N)ncnc21 | > 200 |
| CC1(C)[C@@H](Cn2cnc3c(O)nc(N)nc32)CC[C@@]1(C)CO | > 200 |
| N#CSc1cn([C@H]2C[C@H](O)[C@@H](CO)O2)c(=O)[nH]c1=O | 78.9 |
| O=C(CI)NCc1cn([C@H]2C[C@H](O)[C@@H](CO)O2)c(=O)[nH]c1=O | 107 |
| O=c1[nH]c(=O)n(C2C[C@@H](CO)[C@@H](CO)C2)cc1I (some centres undefined) | > 200 |
| Cc1cn(C[C@@H]2C[C@H](CO)c3ccccc32)c(=O)[nH]c1=O | > 200 |
| O=C1C(O)=C(O)O/C1=C\Cn1cc(F)c(=O)[nH]c1=O | 5.18 |
| CCCCCC#Cc1cn([C@H]2C[C@H](O)[C@@H](CO)O2)c(=O)[nH]c1=O | > 200 |
| O=c1ccn(CC2CCC(CO)C2)c(=O)[nH]1 (centres undefined) | > 200 |
| Nc1nc(O)c2nnn([C@H]3CCCC[C@H]3CO)c2n1 | > 200 |
| Nc1ncnc2c1ncn2[C@H]1C[C@@H](O)[C@@H](C=O)O1 | 26.6 |
| Nc1ncnc2c1ncn2CC1CCC(CO)C1 (centres undefined) | > 200 |
| Oc1ncnc2c1ncn2C[C@@H]1C[C@H](O)c2ccccc21 | > 200 |
| O=c1[nH]c(=O)n([C@H]2C[C@H](O)[C@@H](CO)O2)cc1C#CCCCO | > 200 |
| CC1(C)[C@@H](CO)CC[C@@]1(C)Cn1cc(Br)c(=O)[nH]c1=O | > 200 |
| O=c1[nH]c(=O)n(C[C@@H]2C[C@H](O)c3ccccc32)cc1Br | > 200 |
| Nc1nc(Cl)c2nnn(C[C@H]3CC[C@@H](CO)C3)c2n1 | 170 |
| O=c1[nH]c(=O)n([C@H]2C[C@H](O)[C@@H](CO)O2)cc1O | > 200 |
| C=C(Cl)c1cn([C@H]2C[C@H](O)[C@@H](CO)O2)c(=O)[nH]c1=O | 1.66 |
| O=c1[nH]c(=O)n([C@H]2C[C@H](O)[C@@H](CO)O2)cc1/C=N/O | 15.5 |
| COC1=C(OC)C(=CCn2cnc3c(N)ncnc32)OC1=O | > 200 |
| COc1ncnc2c1ncn2C[C@@H]1C[C@H](CO)c2ccccc21 | > 200 |
| Nc1ncnc2c1ncn2[C@@H]1O[C@H](C=O)C(O)C1O (single isomer, unassigned) | 36.6 |
| O=c1ccn([C@@H]2C[C@H](CO)C[C@@H]2CO)c(=O)[nH]1 | > 200 |
| OCCOCn1cnc2c(O)ncnc21 | > 200 |
| Nc1ncnc2c1ncn2C1OC(C(O)O)[C@H](O)[C@H]1O (single isomer, unassigned) | > 200 |
| O=c1[nH]cnc2c1nnn2C1C[C@H](CO)[C@@H](CO)[C@@H]1CO (some centres undefined) | > 200 |
| CC1(C)[C@@H](CO)CC[C@@]1(C)Cn1cnc2c(Cl)ncnc21 | 42.8 |
| Nc1nc2c(nc(Br)n2COCCO)c(=O)[nH]1 | > 200 |
